Measurements published in the supplement of paper PMC13207355.

Assays:
Conditions in all cases: exposure time: 72 h
E13 [1] = patient-derived glioblastoma stem cells of classical subtype; test: surviving fraction (nuclei count normalised to DMSO); higher = more cells surviving (less toxic)
E21 [2] = patient-derived glioblastoma stem cells of mesenchymal subtype; test: as above
E28 [3] = patient-derived glioblastoma stem cells of classical subtype; test: as above
E31 [4] = patient-derived glioblastoma stem cells of proneural subtype; test: as above
E34 [5] = patient-derived glioblastoma stem cells of proneural subtype; test: as above
E57 [6] = patient-derived glioblastoma stem cells of mesenchymal subtype; test: as above
FT3469 [7] = normal neural stem cell line; test: as above
E13 [8] = test: phenotypic distance (Euclidean, principal components) from DMSO controls (arbitrary units); higher = stronger morphological change
E21 [9] = test: as above
E28 [10] = test: as above
E31 [11] = test: as above
E34 [12] = test: as above
E57 [13] = test: as above
FT3469 [14] = test: as above
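For phenotypic distance (Euclidean, principal components) from DMSO controls in this document: cell Painting imaging in 384-well plates, CellProfiler features reduced to at least 20 principal components, Euclidean distance versus same-plate DMSO vehicle wells (0.1% v/v), median over six images per well.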
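For surviving fraction (nuclei count normalised to DMSO) in this document: nuclei counted by high-content imaging of Hoechst-stained cells in laminin-coated 384-well plates, relative to 0.1% DMSO vehicle wells, with staurosporine as cell-death control.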

C=C(C)[C@H]1Cc2c(ccc3c2O[C@@H]2COc4cc(OC)c(OC)cc4[C@@H]2C3=O)O1 [Rotenone]
Conditions	phenotypic distance	surviving fraction
E13 [1], 4.1 nM	–	1.02
E13 [1], 12.3 nM	–	0.894
E13 [1], 37 nM	–	0.83
E13 [1], 111.1 nM	–	0.771
E13 [1], 333.3 nM	–	0.632
E13 [1], 1000 nM	–	0.566
E13 [1], 3000 nM	–	0.212
E13 [8], 4.1 nM	0.548	–
E13 [8], 12.3 nM	0.572	–
E13 [8], 37 nM	1.04	–
E13 [8], 111.1 nM	1.22	–
E13 [8], 333.3 nM	2.49	–
E13 [8], 1000 nM	3.77	–
E13 [8], 3000 nM	6.02	–
E21 [2], 4.1 nM	–	0.993
E21 [2], 12.3 nM	–	0.918
E21 [2], 37 nM	–	0.978
E21 [2], 111.1 nM	–	0.905
E21 [2], 333.3 nM	–	0.822
E21 [2], 1000 nM	–	0.511
E21 [2], 3000 nM	–	0.147
E21 [9], 4.1 nM	0.532	–
E21 [9], 12.3 nM	0.585	–
E21 [9], 37 nM	0.921	–
E21 [9], 111.1 nM	1.37	–
E21 [9], 333.3 nM	2.24	–
E21 [9], 1000 nM	3.52	–
E21 [9], 3000 nM	7.81	–
E28 [3], 4.1 nM	–	1.05
E28 [3], 12.3 nM	–	0.989
E28 [3], 37 nM	–	0.906
E28 [3], 111.1 nM	–	0.904
E28 [3], 333.3 nM	–	0.818
E28 [3], 1000 nM	–	0.648
E28 [3], 3000 nM	–	0.425
E28 [10], 4.1 nM	0.546	–
E28 [10], 12.3 nM	0.394	–
E28 [10], 37 nM	0.642	–
E28 [10], 111.1 nM	0.779	–
E28 [10], 333.3 nM	1.31	–
E28 [10], 1000 nM	2.44	–
E28 [10], 3000 nM	3.1	–
E31 [4], 4.1 nM	–	0.905
E31 [4], 12.3 nM	–	0.93
E31 [4], 37 nM	–	1
E31 [4], 111.1 nM	–	0.862
E31 [4], 333.3 nM	–	0.672
E31 [4], 1000 nM	–	0.385
E31 [4], 3000 nM	–	0.135
E31 [11], 4.1 nM	0.668	–
E31 [11], 12.3 nM	0.711	–
E31 [11], 37 nM	2.14	–
E31 [11], 111.1 nM	1.02	–
E31 [11], 333.3 nM	1.3	–
E31 [11], 1000 nM	2.13	–
E31 [11], 3000 nM	5.49	–
E34 [5], 4.1 nM	–	1.04
E34 [5], 12.3 nM	–	1.04
E34 [5], 37 nM	–	0.855
E34 [5], 111.1 nM	–	0.843
E34 [5], 333.3 nM	–	0.755
E34 [5], 1000 nM	–	0.786
E34 [5], 3000 nM	–	0.473
E34 [12], 4.1 nM	0.805	–
E34 [12], 12.3 nM	1	–
E34 [12], 37 nM	0.736	–
E34 [12], 111.1 nM	0.699	–
E34 [12], 333.3 nM	1.76	–
E34 [12], 1000 nM	1.95	–
E34 [12], 3000 nM	3.52	–
E57 [6], 4.1 nM	–	1.04
E57 [6], 12.3 nM	–	1.05
E57 [6], 37 nM	–	0.983
E57 [6], 111.1 nM	–	0.959
E57 [6], 333.3 nM	–	0.941
E57 [6], 1000 nM	–	0.821
E57 [6], 3000 nM	–	0.188
E57 [13], 4.1 nM	0.304	–
E57 [13], 12.3 nM	0.356	–
E57 [13], 37 nM	0.67	–
E57 [13], 111.1 nM	0.385	–
E57 [13], 333.3 nM	1.23	–
E57 [13], 1000 nM	1.95	–
E57 [13], 3000 nM	6.35	–
FT3469 [7], 4.1 nM	–	1.12
FT3469 [7], 12.3 nM	–	0.838
FT3469 [7], 37 nM	–	0.826
FT3469 [7], 111.1 nM	–	0.877
FT3469 [7], 333.3 nM	–	0.897
FT3469 [7], 1000 nM	–	0.744
FT3469 [7], 3000 nM	–	0.448
FT3469 [14], 4.1 nM	0.458	–
FT3469 [14], 12.3 nM	0.898	–
FT3469 [14], 37 nM	0.644	–
FT3469 [14], 111.1 nM	1.18	–
FT3469 [14], 333.3 nM	1.03	–
FT3469 [14], 1000 nM	2.14	–
FT3469 [14], 3000 nM	3.61	–

O=C(/C=C\n1cnc(-c2cc(C(F)(F)F)cc(C(F)(F)F)c2)n1)NNc1cnccn1 [Selinexor]
Conditions	phenotypic distance	surviving fraction
E13 [1], 4.1 nM	–	0.654
E13 [1], 12.3 nM	–	0.572
E13 [1], 37 nM	–	0.418
E13 [1], 111.1 nM	–	0.355
E13 [1], 333.3 nM	–	0.384
E13 [1], 1000 nM	–	0.31
E13 [1], 3000 nM	–	0.242
E13 [8], 4.1 nM	1.6	–
E13 [8], 12.3 nM	2.09	–
E13 [8], 37 nM	3.06	–
E13 [8], 111.1 nM	3.35	–
E13 [8], 333.3 nM	3.49	–
E13 [8], 1000 nM	3.23	–
E13 [8], 3000 nM	4.73	–
E21 [2], 4.1 nM	–	0.753
E21 [2], 12.3 nM	–	0.729
E21 [2], 37 nM	–	0.667
E21 [2], 111.1 nM	–	0.572
E21 [2], 333.3 nM	–	0.541
E21 [2], 1000 nM	–	0.51
E21 [2], 3000 nM	–	0.315
E21 [9], 4.1 nM	2.91	–
E21 [9], 12.3 nM	3.17	–
E21 [9], 37 nM	3.01	–
E21 [9], 111.1 nM	3.44	–
E21 [9], 333.3 nM	3.53	–
E21 [9], 1000 nM	3.96	–
E21 [9], 3000 nM	4.26	–
E28 [3], 4.1 nM	–	0.643
E28 [3], 12.3 nM	–	0.605
E28 [3], 37 nM	–	0.441
E28 [3], 111.1 nM	–	0.4
E28 [3], 333.3 nM	–	0.327
E28 [3], 1000 nM	–	0.373
E28 [3], 3000 nM	–	0.246
E28 [10], 4.1 nM	1.34	–
E28 [10], 12.3 nM	1.88	–
E28 [10], 37 nM	2.76	–
E28 [10], 111.1 nM	2.65	–
E28 [10], 333.3 nM	2.86	–
E28 [10], 1000 nM	2.69	–
E28 [10], 3000 nM	3.06	–
E31 [4], 4.1 nM	–	0.703
E31 [4], 12.3 nM	–	0.51
E31 [4], 37 nM	–	0.444
E31 [4], 111.1 nM	–	0.38
E31 [4], 333.3 nM	–	0.311
E31 [4], 1000 nM	–	0.331
E31 [4], 3000 nM	–	0.239
E31 [11], 4.1 nM	2.16	–
E31 [11], 12.3 nM	2.72	–
E31 [11], 37 nM	2.72	–
E31 [11], 111.1 nM	3.08	–
E31 [11], 333.3 nM	2.98	–
E31 [11], 1000 nM	2.55	–
E31 [11], 3000 nM	3.17	–
E34 [5], 4.1 nM	–	0.782
E34 [5], 12.3 nM	–	0.833
E34 [5], 37 nM	–	0.867
E34 [5], 111.1 nM	–	0.547
E34 [5], 333.3 nM	–	0.582
E34 [5], 1000 nM	–	0.569
E34 [5], 3000 nM	–	0.582
E34 [12], 4.1 nM	1.14	–
E34 [12], 12.3 nM	1.28	–
E34 [12], 37 nM	1.6	–
E34 [12], 111.1 nM	1.64	–
E34 [12], 333.3 nM	1.71	–
E34 [12], 1000 nM	1.72	–
E34 [12], 3000 nM	2.17	–
E57 [6], 4.1 nM	–	0.554
E57 [6], 12.3 nM	–	0.554
E57 [6], 37 nM	–	0.43
E57 [6], 111.1 nM	–	0.286
E57 [6], 333.3 nM	–	0.313
E57 [6], 1000 nM	–	0.32
E57 [6], 3000 nM	–	0.244
E57 [13], 4.1 nM	2.64	–
E57 [13], 12.3 nM	2.17	–
E57 [13], 37 nM	2.78	–
E57 [13], 111.1 nM	3.97	–
E57 [13], 333.3 nM	4.39	–
E57 [13], 1000 nM	5.44	–
E57 [13], 3000 nM	6.2	–
FT3469 [7], 4.1 nM	–	0.614
FT3469 [7], 12.3 nM	–	0.659
FT3469 [7], 37 nM	–	0.616
FT3469 [7], 111.1 nM	–	0.614
FT3469 [7], 333.3 nM	–	0.692
FT3469 [7], 1000 nM	–	0.556
FT3469 [7], 3000 nM	–	0.612
FT3469 [14], 4.1 nM	1.68	–
FT3469 [14], 12.3 nM	2.14	–
FT3469 [14], 37 nM	1.85	–
FT3469 [14], 111.1 nM	1.78	–
FT3469 [14], 333.3 nM	2.12	–
FT3469 [14], 1000 nM	1.48	–
FT3469 [14], 3000 nM	1.57	–
